The results in this text go back to US20210179680A1, “POLYPEPTIDE, DERIVATIVES THEREOF, AND APPLICATION THEREOF IN PREPARATION OF DRUGS HAVING RESISTANCE TO PULMONARY FIBROSIS” (priority 2016, published 2021).

Structures are written as SMILES. Bridge positions count the residues as written; N and C are the ends. Square brackets hold non-standard residues; d marks the D form. Peptide text beside a SMILES is read from it. S5 = C=CCCC[C@](C)(N)C(=O)O

Test [1] deals with mice with bleomycin-induced pulmonary fibrosis. The test can be described thus: Pulmonary function (Flexivent) in mice with pulmonary fibrosis. It is filed as in vivo, C57BL/6 mice. The conditions noted are these: Table 3 groups, 2 mg/kg i.p.; for Dynamic compliance (mL/cmH2O) / Dynamic elasticity (cmH2O./mL) / Dynamic resistance (cmH2O · s/Ml) / Inspiratory capacity: 28th day after model construction; for pulmonary function of mice with pulmonary fibrosis (in words): FIG. 11. On the procedure: (§1) Male C57BL/6 mice were fasted overnight, then anesthetized with 45 mg/kg sodium pentobarbital by injection intraperitoneally (i.p.), and intratracheally injected with bleomycin at a dose of 3 U/kg. The specific operation steps are as follows: cut the neck skin of the mouse with as little trauma as possible, expose the trachea with the assistance of elbow ophthalmic forceps, puncture the trachea and inject about 50 μL of bleomycin into the trachea with a microsyringe, rotate the mouse quickly and stand it upright for 5 minutes in order to make bleomycin evenly enter the left and right lobe, thereby constructing an animal model. The whole operation was performed at a surgical table at about […]. Mice in the sham operation group were intratracheally injected with an equal amount of physiological saline for injection.
(§2) Pulmonary function is a gold indicator for clinical detection of pulmonary fibrosis in patients. The decline of lung function is generally accompanied by an aggravation of fibrosis, while the improvement of lung function generally represents the recovery of lung tissue structure. Pulmonary fibrosis models were prepared according to the method described in Example 2 and administered in groups according to Table 3. On the 28th day after the construction of the animal model, the mice were anesthetized with sodium pentobarbital (45 mg/kg, i.p.). Lung function was tested by the Flexivent Small-animal respiratory mechanics and the testing methods were TLC and SnapShots (Testing method refers to Lv X, Wang X, Li K, et al. Rupatadine Protects against Pulmonary Fibrosis by Attenuating PAF-Mediated Senescence in Rodents [J]. PloS one, 2013, 8(7): e68631).
as §2, with “lung function also generally represents” for “lung function generally represents”, “to Table 9. 28 days later, the mice” for “to Table 3. On the 28th day after the construction of the animal model, the mice”, “Senescence in Rodents[J]. PloS one,” for “Senescence in Rodents [J]. PloS one,”

Test [2] has the same test system. The test can be described thus: Hydroxyproline content in lung of mice with pulmonary fibrosis. It is filed as in vivo, C57BL/6 mice. Conditions: Table 3 groups, 2 mg/kg i.p.; left lung lobes; chloramine-T method. The method, then: as §1
Hydroxyproline accounts for 13.4% (w/w) of collagen, and extremely small amount of elastin, while it is absent in other proteins. […] Pulmonary fibrosis models were prepared according to the method described in Example 2 and administered in groups according to Table 3. The content of hydroxyproline in the lobes of left lung of the animals was measured 28 days later, and the condition of pulmonary fibrosis was evaluated.
The specific method is as follows: the mice in the animal model prepared in Example 2 was feed in a SPF animal room and treated with polypeptide according to the dosing schedule of Table 3, and all left lobes of lung of the experimental animal was taken on the 21st day after the animal model was constructed and the wet weight was recorded. Then 10% (w/w) tissue homogenate was prepared by ultrasonic homogenization using physiological saline. About 150 μL of homogenate supernatant was taken, and 500 μL of alkali hydrolysate was added (provided by Hydroxyproline alkaline hydrolysis kit of Nanjing Jiancheng Bioengineering Technology Co., Ltd.). After vortex mixing, the mixture was treated with alkaline hydrolysis for 40 min under conditions of 120° C., 0.1 Kpa. After adjusting the pH value, the volume was held constant, and the supernatant was taken after performing activated carbon treatment. The hydroxyproline was determined according to the chloramine-T method (the method of the present example refers to the instruction provided with kit, which was purchased from Nanjing Jiancheng Bioengineering Technology Co., Ltd.). […] In FIG. 10, “##” represents that P value is less than 0.01 when comparing the content of hydroxyproline in the administration group with that in the sham operation group; and “*” represents that P value is less than 0.05 and“**” represents that P value is less than 0.01 when comparing the content of hydroxyproline in the administration group with that in bleomycin group.
Hydroxyproline accounts for 13.4% (w/w) of collagen, and accounts for extremely small amount of elastin, while it is absent in other proteins. […] Pulmonary fibrosis models were prepared according to the method described in Example 2 and administered in groups according to Table 3. The content of hydroxyproline in the all lobes of left lung of the animals was measured 28 days later, and the condition of pulmonary fibrosis was evaluated.
The specific method is as follows: the mice in the animal model prepared in Example 2 was feed in an SPF animal room and treated with polypeptide according to the dosing schedule of Table 3, and all the left lobes of lung of the experimental animal was taken on the 21st day after the animal model was constructed and the wet weight was recorded. Then 10% (w/w) tissue homogenate was prepared by ultrasonic homogenization using physiological saline. About 150 μL of homogenate supernatant was taken, and 500 μL of alkali hydrolysate was added (provided by Hydroxyproline alkaline hydrolysis kit of Nanjing Jiancheng Bioengineering Technology Co., Ltd.). After vortex mixing, the mixture was treated with alkaline hydrolysis for 40 min under conditions of 120° C., 0.1 Kpa. […]

Test [3] addresses T1, TRB3/MDM2 protein interaction (Homo sapiens, UniProt Q96RU7).
T1 construct: host or cells: BEAS-2B
T1 sequence (Q96RU7 1-358): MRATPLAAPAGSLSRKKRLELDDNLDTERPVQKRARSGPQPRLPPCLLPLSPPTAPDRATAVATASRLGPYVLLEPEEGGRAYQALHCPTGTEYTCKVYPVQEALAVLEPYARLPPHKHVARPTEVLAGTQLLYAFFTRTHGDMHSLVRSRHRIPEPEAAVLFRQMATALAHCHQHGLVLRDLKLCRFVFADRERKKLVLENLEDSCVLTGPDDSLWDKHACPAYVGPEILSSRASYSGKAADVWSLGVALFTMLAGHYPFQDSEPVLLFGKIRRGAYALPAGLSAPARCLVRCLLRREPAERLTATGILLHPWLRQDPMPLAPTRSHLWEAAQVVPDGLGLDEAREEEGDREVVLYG
Put plainly: Co-immunoprecipitation: inhibition of binding of MDM2 to TRB3 in BEAS-2B cells. Conditions: BEAS-2B cells with TRB3 expression plasmid, 1 mg/mL polypeptide, 12 hours, co-IP with MDM2 antibody. It is filed as cell-based. On the procedure: 1. Human lung epithelial BEAS-2B cells (purchased from Institute of Basic Medical Sciences, Chinese Academy of Medical Sciences) were seeded in a 90 mm^2 culture dish. After the cells were adhered to the wall of culture dish, the TRB3 expression plasmid were transferred to the cells according to the method described in Example 5. After 24 hours, 1 mg/mL of the polypeptides MR2, S1, S2, S3, S4, S5, S6, S7, S8, S9, S10 or S11 prepared in Example 1 were added respectively, and the cells were incubated for 12 hours in a 37° C. incubator and then harvested.
2. Co-immunoprecipitation with MDM2 antibody was performed according to the method described in Example 3, followed by detection using TRB3 antibody.

Consider `CSCC[C@H](NC(=O)[C@H](CC(C)C)NC(=O)[C@@H](N)Cc1c[nH]cn1)C(=O)N[C@@H](C)C(=O)N[C@@H](CS)C(=O)N[C@@H](Cc1ccccc1)C(=O)N[C@H](C(=O)N[C@@H](CS)C(=O)N[C@@H](C)C(=O)N[C@@]1(C)CCCC=CCCC[C@@](C)(C(=O)N[C@@H](CCCNC(=N)N)C(=O)O)NC(=O)[C@H](CCCCN)NC(=O)[C@H](CC(C)C)NC(=O)[C@H](CCCCN)NC1=O)[C@@H](C)O` [S10, His-Leu-Met-Ala-Cys-Phe-Thr-Cys-Ala-S5-Lys-Leu-Lys-S5-Arg] (H-HLMACFTCA[S5]KLK[S5]R-OH; staple 10-14; N-terminus and C-terminus assumed), for which, in test [1], the “Dynamic compliance (mL/cmH2O)” value amounted to 0.2333 mL/cmH2O, the “Dynamic elasticity (cmH2O./mL)” value came out at 49.5 cmH2O./mL, the “Dynamic resistance (cmH2O · s/Ml)” value is 1.367 cmH2O · s/Ml and the “Inspiratory capacity” value turned out to be 0.562 mL. Further, in test [1], the “pulmonary function of mice with pulmonary fibrosis (in words)” value (“pulmonary function of mice” for short) is listed as “improved”. Besides, in test [2], the “hydroxyproline content (μg/mg protein)” value is reported as 0.8163 μg/mg protein. In addition, in test [3], the “interaction of TRB3 and MDM2 protein (FIG. 5, in words)” value (“interaction of TRB3 and MDM2 protein” for short) is reported as “interrupted”.
As for `CSCC[C@H](NC(=O)[C@H](CC(C)C)NC(=O)[C@@H](N)Cc1c[nH]cn1)C(=O)N[C@@H](C)C(=O)N[C@@H](CS)C(=O)N[C@@H](Cc1ccccc1)C(=O)N[C@H](C(=O)N[C@@H](CS)C(=O)N[C@@]1(C)CCCC=CCCC[C@@](C)(C(=O)N[C@@H](CCCCN)C(=O)N[C@@H](CCCNC(=N)N)C(=O)O)NC(=O)[C@H](CC(C)C)NC(=O)[C@H](CCCCN)NC(=O)[C@H](CCCCN)NC1=O)[C@@H](C)O` [S9, His-Leu-Met-Ala-Cys-Phe-Thr-Cys-S5-Lys-Lys-Leu-S5-Lys-Arg] (H-HLMACFTC[S5]KKL[S5]KR-OH; staple 9-13; N-terminus and C-terminus assumed), in test [1], the “Dynamic compliance (mL/cmH2O)” value stood at 0.27 mL/cmH2O, the “Dynamic elasticity (cmH2O./mL)” value came to 44.5 cmH2O./mL, the “Dynamic resistance (cmH2O · s/Ml)” value worked out at 1.033 cmH2O · s/Ml and the “Inspiratory capacity” value came to 0.686 mL. In test [1], the “pulmonary function of mice” value is “improved”. In addition, the “hydroxyproline content (μg/mg protein)” value in test [2] is recorded as 0.7212 μg/mg protein. In addition, in test [3], the “interaction of TRB3 and MDM2 protein” value is given as “interrupted”.
`CSCC[C@H](NC(=O)[C@H](CC(C)C)NC(=O)[C@@H](N)Cc1c[nH]cn1)C(=O)N[C@@H](C)C(=O)N[C@@H](CS)C(=O)N[C@@H](Cc1ccccc1)C(=O)N[C@H](C(=O)N[C@@H](CS)C(=O)N[C@@H](C)C(=O)N[C@@H](CCCCN)C(=O)N[C@@]1(C)CCCC=CCCC[C@@](C)(C(=O)O)NC(=O)[C@H](CCCCN)NC(=O)[C@H](CCCCN)NC(=O)[C@H](CC(C)C)NC1=O)[C@@H](C)O` [S11, His-Leu-Met-Ala-Cys-Phe-Thr-Cys-Ala-Lys-S5-Leu-Lys-Lys-S5] (H-HLMACFTCAK[S5]LKK[S5]-OH; staple 11-15; N-terminus and C-terminus assumed): in test [1], the “Dynamic compliance (mL/cmH2O)” value came to 0.235 mL/cmH2O, the “Dynamic elasticity (cmH2O./mL)” value was found to be 53 cmH2O./mL, the “Dynamic resistance (cmH2O · s/Ml)” value amounted to 1.267 cmH2O · s/Ml and the “Inspiratory capacity” value worked out at 0.658 mL. The “pulmonary function of mice” value in test [1] is given as “improved”. Moreover, the “hydroxyproline content (μg/mg protein)” value in test [2] is 0.7725 μg/mg protein. The “interaction of TRB3 and MDM2 protein” value in test [3] is “interrupted”.
On to `CSCC[C@H](NC(=O)[C@H](CC(C)C)NC(=O)[C@@H](N)Cc1c[nH]cn1)C(=O)N[C@@H](C)C(=O)N[C@@]1(C)CCCC=CCCC[C@@](C)(C(=O)N[C@@H](CCCCN)C(=O)N[C@@H](CCCCN)C(=O)N[C@@H](CC(C)C)C(=O)N[C@@H](CCCCN)C(=O)N[C@@H](CCCCN)C(=O)N[C@@H](CCCNC(=N)N)C(=O)O)NC(=O)[C@H](CS)NC(=O)[C@H]([C@@H](C)O)NC(=O)[C@H](Cc2ccccc2)NC1=O` [S5, His-Leu-Met-Ala-S5-Phe-Thr-Cys-S5-Lys-Lys-Leu-Lys-Lys-Arg] (H-HLMA[S5]FTC[S5]KKLKKR-OH; staple 5-9; N-terminus and C-terminus assumed), for which, in test [1], the “Dynamic compliance (mL/cmH2O)” value was found to be 0.3117 mL/cmH2O, the “Dynamic elasticity (cmH2O./mL)” value is 47.5 cmH2O./mL, the “Dynamic resistance (cmH2O · s/Ml)” value came out at 0.85 cmH2O · s/Ml and the “Inspiratory capacity” value amounted to 0.738 mL. Further, in test [1], the “pulmonary function of mice” value is recorded as “improved”. In addition, in test [2], the “hydroxyproline content (μg/mg protein)” value is on record as 0.6575 μg/mg protein. The “interaction of TRB3 and MDM2 protein” value in test [3] was “interrupted”.
On to `CC(C)C[C@H](NC(=O)[C@H](CCCCN)NC(=O)[C@H](CCCCN)NC(=O)[C@H](C)NC(=O)[C@H](CS)NC(=O)[C@]1(C)CCCC=CCCC[C@](C)(NC(=O)[C@H](CC(C)C)NC(=O)[C@@H](N)Cc2c[nH]cn2)C(=O)N[C@@H](C)C(=O)N[C@@H](CS)C(=O)N[C@@H](Cc2ccccc2)C(=O)N1)C(=O)N[C@@H](CCCCN)C(=O)N[C@@H](CCCCN)C(=O)N[C@@H](CCCNC(=N)N)C(=O)O` [S3, His-Leu-S5-Ala-Cys-Phe-S5-Cys-Ala-Lys-Lys-Leu-Lys-Lys-Arg] (H-HL[S5]ACF[S5]CAKKLKKR-OH; staple 3-7; N-terminus and C-terminus assumed), for which, in test [1], the “Dynamic compliance (mL/cmH2O)” value is on record as 0.255 mL/cmH2O, the “Dynamic elasticity (cmH2O./mL)” value is recorded as 47 cmH2O./mL, the “Dynamic resistance (cmH2O · s/Ml)” value worked out at 1.143 cmH2O · s/Ml and the “Inspiratory capacity” value is 0.646 mL. The “pulmonary function of mice” value in test [1] was “improved”. Further, in test [2], the “hydroxyproline content (μg/mg protein)” value stood at 0.8287 μg/mg protein. Besides, in test [3], the “interaction of TRB3 and MDM2 protein” value is on record as “interrupted”.
